Assay results as given in patent publication US11780845B2 (Relay Therapeutics, Inc., priority 2019, dated 2023).

Experiments:
FGFR2 = FGFR2 (Homo sapiens (Human), UniProt P21802); experiment: Biochemical FGFR2 Caliper assay
SNU-16 = experiment: Cell SNU-16 assay; type: cell-based
[1] = Homo sapiens, SNU-16, SNU-16 cells

Sequence of FGFR2 (P21802 22-821): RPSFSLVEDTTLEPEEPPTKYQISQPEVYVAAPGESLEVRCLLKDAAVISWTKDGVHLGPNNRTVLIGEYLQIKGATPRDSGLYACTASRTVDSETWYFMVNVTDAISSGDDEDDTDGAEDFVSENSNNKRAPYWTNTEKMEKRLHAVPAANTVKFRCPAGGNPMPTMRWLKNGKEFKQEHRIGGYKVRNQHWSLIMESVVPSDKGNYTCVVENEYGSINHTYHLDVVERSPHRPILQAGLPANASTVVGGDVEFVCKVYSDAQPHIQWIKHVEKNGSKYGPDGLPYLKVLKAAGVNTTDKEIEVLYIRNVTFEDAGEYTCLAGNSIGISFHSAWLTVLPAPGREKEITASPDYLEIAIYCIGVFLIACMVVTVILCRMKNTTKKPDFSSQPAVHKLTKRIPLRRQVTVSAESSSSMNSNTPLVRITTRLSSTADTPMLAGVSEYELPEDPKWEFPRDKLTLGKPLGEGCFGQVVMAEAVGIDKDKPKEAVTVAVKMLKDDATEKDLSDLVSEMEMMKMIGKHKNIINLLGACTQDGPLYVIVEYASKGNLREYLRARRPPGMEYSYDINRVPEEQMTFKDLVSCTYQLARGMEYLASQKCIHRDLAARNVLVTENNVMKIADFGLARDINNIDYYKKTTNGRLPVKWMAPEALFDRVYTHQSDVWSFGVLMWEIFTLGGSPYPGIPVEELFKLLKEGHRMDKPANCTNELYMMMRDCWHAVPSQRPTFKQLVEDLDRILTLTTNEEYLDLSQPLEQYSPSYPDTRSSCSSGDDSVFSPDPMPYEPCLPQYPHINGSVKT

SMILES | IC50 (FGFR2) [nM] | IC50 (SNU-16; [1]) [nM] | IC50 (SNU-16; SNU-16 cells) [nM]
C=C(C)c1ccc(-c2c(-c3ccc4nn[nH]c4c3)c3c(N)ncnc3n2C)cn1 [Example 1407] | 250 to 1000 | 250 to 1000 | 
C#Cc1cnc2cc(-c3c(-c4ccc(Oc5nccc(C)n5)c(F)c4)c4c(C)ncnc4n3C)ccc2n1 [Example 1408] | < 100 | 100 to 250 | 
C#Cc1ncc2cc(-c3c(-c4ccc(Oc5nccc(C)n5)c(F)c4)c4c(N)ncnc4n3C)n(C)c2n1 [Example 1411] | < 100 | ≤ 100 | 
C#Cc1cnc2c(cc(-c3c(-c4ccc(Oc5nccc(C)n5)c(F)c4)c4c(N)ncnc4n3C)n2C)n1 [Example 1413] | < 100 | ≤ 100 | 
C#Cc1cc(C)c(-c2c(-c3ccc(Oc4nccc(C)n4)c(F)c3)c3c(Cl)ncnc3n2C)c(F)n1 [Example 1417] | < 100 |  | ≤ 100
C#Cc1cc(OC)c(-c2c(-c3ccc(Oc4nccc(C)n4)c(F)c3)c3c(C)ncnc3n2C)cn1 [Example 1418] | < 100 | ≤ 100 | 
C=C(C)C(=O)Nc1ccc(-c2c(-c3cnc(-c4ccc(OC)cc4)s3)c3c(N)ncnc3n2C)cc1 [Example 1419] | < 100 | ≤ 100 | 
C=C(C)C(=O)Nc1ccc(-c2c(-c3cnc(-c4cccc(OC)c4)s3)c3c(N)ncnc3n2C)cc1 [Example 1420] | 250 to 1000 | 250 to 1000 | 
C=C(C)C(=O)Nc1ccc(-c2c(-c3cnc(-c4ccccc4C)s3)c3c(N)ncnc3n2C)cc1 [Example 1422] | 250 to 1000 | 250 to 1000 | 
C=C(C)C(=O)Nc1ccc(-c2c(-c3cnc(-c4ccc(F)cc4)s3)c3c(N)ncnc3n2C)cc1 [Example 1424] | 100 to 250 | 250 to 1000 | 
C#Cc1nc2cc(-c3c(-c4ccc(Oc5nccc(C)n5)c(F)c4)c4c(N)ncnc4n3C)c(OC)cc2n1C [Example 1426] | < 100 | ≤ 100 | 
C#Cc1cnc2cc(-c3c(-c4ccc(Oc5nccc(C)n5)c(F)c4)c4c(N)ncnc4n3C)c(C)cc2n1 [Example 1428] | < 100 | ≤ 100 | 
[2H]C#Cc1cc(C)c(-c2c(-c3ccc(Oc4nccc(C)n4)c(F)c3)c3c(N)ncnc3n2C)cn1 [Example 1431] | < 100 | ≤ 100 | 
C#Cc1cc(C)c(-c2c(-c3ccc(Oc4nccc(C)n4)c(F)c3)c3c(C(F)F)ncnc3n2C)cn1 [Example 1432] | 1000 to 100000 | 1000 to 100000 | 

The next lines start with the values.

IC50 (FGFR2) [nM] | IC50 (SNU-16; [1]) [nM] | IC50 (SNU-16; SNU-16 cells) [nM] | SMILES
< 100 | ≤ 100 |  | C#Cc1ccc2cc(-c3c(-c4ccc(Oc5nccc(C)n5)c(F)c4)c4c(N)ncnc4n3C)ccc2n1 [Example 1405]
< 100 | ≤ 100 |  | C#Cc1cc(C)c(-c2c(-c3ccc(Oc4nccc(C)n4)c(F)c3)c3c(C)ncnc3n2C)c(C)n1 [Example 1406]
250 to 1000 | 250 to 1000 |  | C#Cc1ccc2ccc(-c3c(-c4ccc(Oc5nccc(C)n5)c(F)c4)c4c(N)ncnc4n3C)cc2n1 [Example 1412]
< 100 |  | 100 to 250 | C#Cc1cc(C)c(-c2c(-c3ccc(Oc4nccc(C)n4)c(F)c3)c3c(Cl)ncnc3n2C)c(F)n1 [Example 1416]
250 to 1000 | 250 to 1000 |  | C=C(C)C(=O)Nc1ccc(-c2c(-c3cnc(-c4cccc(F)c4)s3)c3c(N)ncnc3n2C)cc1 [Example 1421]
250 to 1000 | 250 to 1000 |  | C=C(C)C(=O)Nc1ccc(-c2c(-c3cnc(-c4cccc(C)c4)s3)c3c(N)ncnc3n2C)cc1 [Example 1423]
1000 to 100000 | 1000 to 100000 |  | C#Cc1cnc2cc(-c3c(-c4ccc(Oc5nccc(C)n5)c(F)c4)c4c(N)ncnc4n3C)ccc2c1 [Example 1425]
< 100 | ≤ 100 |  | COCC#Cc1ccc2cc(-c3c(-c4ccc(Oc5nccc(C)n5)c(F)c4)c4c(N)ncnc4n3C)ccc2n1 [Example 1427]
< 100 | ≤ 100 |  | C#Cc1ccc2cc(-c3c(-c4ccc(Oc5nccc(C)n5)c(F)c4)c4c(N)ncnc4n3C)cnc2n1 [Example 1429]
< 100 | ≤ 100 |  | COCC#Cc1cc(OC)c(-c2c(-c3ccc(Oc4nccc(C)n4)c(F)c3)c3c(C)ncnc3n2C)cn1 [Example 1430]
